{
  "source": "patent US7879876B2",
  "about": "“Sulfonamide derivatives and use thereof for the modulation of metalloproteinases” (Merck Serono SA, priority 2005, dated 2011)",
  "assay_type_in_all_cases": "biochemical",
  "key": {"[1]": {"molecular_target": "92 kDa gelatinase (MMP-9) (Homo sapiens, UniProt P14780)", "sequence (P14780 107-707 limits assumed)": "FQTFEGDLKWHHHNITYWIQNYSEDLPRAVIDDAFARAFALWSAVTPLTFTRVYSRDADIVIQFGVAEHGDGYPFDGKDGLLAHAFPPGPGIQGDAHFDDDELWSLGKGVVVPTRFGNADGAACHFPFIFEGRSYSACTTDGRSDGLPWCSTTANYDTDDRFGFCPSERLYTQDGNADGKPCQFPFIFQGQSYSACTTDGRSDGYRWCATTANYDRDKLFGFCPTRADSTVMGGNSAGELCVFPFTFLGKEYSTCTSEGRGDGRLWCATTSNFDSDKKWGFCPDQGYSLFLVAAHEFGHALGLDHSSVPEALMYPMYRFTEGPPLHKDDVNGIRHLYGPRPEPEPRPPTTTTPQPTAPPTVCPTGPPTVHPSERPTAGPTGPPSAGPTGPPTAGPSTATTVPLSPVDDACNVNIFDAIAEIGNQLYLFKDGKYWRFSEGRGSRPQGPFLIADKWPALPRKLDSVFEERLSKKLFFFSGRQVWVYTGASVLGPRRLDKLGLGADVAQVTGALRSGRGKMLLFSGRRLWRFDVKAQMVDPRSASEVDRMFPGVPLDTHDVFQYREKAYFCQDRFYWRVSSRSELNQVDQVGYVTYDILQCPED", "experiment": "MMP-9 enzyme inhibition assay (coumarin-labeled peptide substrate)", "conditions": "read-out: IC50 MMP9", "protocol": "(§1) Compounds of the invention were tested to assess their activities as inhibitors of MMP-1, MMP-2, MMP-9, MMP-14, MMP-12 and TACE. MMP-9 Assay Protocol\n(§2) Compounds of the invention were tested for inhibitory activity against 92 kDa gelatinase (MMP-9) in an assay using a coumarin-labeled peptide substrate, (7-methoxycoumarin-4-yl)acetyl-Pro-Leu-Gly-Leu-(3-[2,4-dinitrophenyl]-L-2,3diaminopropionyl)-Ala-Arg-NH2 (McaPLGLDpaAR) (Knight et al, FEBS Lett. 1992; 263-266).\n(§3) Stock solutions were made up as follows: Assay Butter: 100 mM Tris-HCl pH 7.6 containing 100 mM NaCl, 10 mM CaCl2, and 0.05% Brij 35.\n(§4) Substrate: 0.4 mM McaPLGLDpaAR (from Bachem) (0.437 mg/ml) stock solution in 100% DMSO (stored at −20° C.). Dilute to 8 μM in assay butter.\n(§5) Enzyme: Recombinant human 92 kDa gelatinase (MMP-9; APMA (4-aminophenyl mercuric acetate)-activated if necessary) appropriately diluted in assay butter.\n(§6) Test Compounds were prepared initially as 10 mM compound solution in 100% DMSO, diluted to 1 mM in 100% DMSO, then serially diluted 3-fold in 100% DMSO across columns 1-10 of a 96-well microtitre plate Assay concentration range, 100 μM (column 1) to 5.1 nM (column 10).\n(§7) The assay was performed in a total volume of 100 μL per well in 96-well microtitre plates. Activated enzyme (20 μL) was added to the wells followed by 20 μL of assay butter. Appropriate concentrations of test compounds dissolved in 10 μL of DMSO were then added followed by 50 μL of McaPLGLDpaAR (8 μM, prepared by dilution of DMSO stock in assay butter). For each as say ten concentrations of test compound were examined in duplicate. Control wells lack either enzyme or test compound. The reactions were incubated at 37° C. for 2 hours. The fluorescence at 405 nm was measured immediately with an SLT Fluostar fluorometer (SL T Labinstruments GmbH, Grödig, Austria) using 320 nm excitation, without stopping the reaction.\n(§8) The effect of the test compound was determined from the dose response curve generated by the 10 duplicate concentrations of inhibitor. The IC50 (the concentration of compound required to give a 50% decrease in enzyme activity) was obtained by fitting data to the equation, Y=a+((b−a)/(1+(c/X)^d)). (Y=inhibition achieved for a particular dose; X=the dose in nM; a=minimum y or zero % inhibition; b=maximum y or 100% inhibition; c=is the IC50; d=is the slope). The result was rounded to one significant figure."}, "[2]": {"molecular_target": "T1, collagenase (MMP-1) (Homo sapiens, UniProt P03956)", "T1 sequence (P03956 100-469)": "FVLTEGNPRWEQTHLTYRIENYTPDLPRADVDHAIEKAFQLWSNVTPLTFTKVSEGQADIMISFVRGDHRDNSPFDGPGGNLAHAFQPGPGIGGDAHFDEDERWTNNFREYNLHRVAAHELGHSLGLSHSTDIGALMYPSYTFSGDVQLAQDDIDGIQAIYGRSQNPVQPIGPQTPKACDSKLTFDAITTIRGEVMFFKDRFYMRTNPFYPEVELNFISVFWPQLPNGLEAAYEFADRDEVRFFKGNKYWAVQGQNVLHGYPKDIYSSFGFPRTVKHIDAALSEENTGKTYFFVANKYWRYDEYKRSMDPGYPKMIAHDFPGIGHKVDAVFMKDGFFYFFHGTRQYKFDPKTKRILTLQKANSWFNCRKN", "experiment": "MMP-1 enzyme inhibition assay (coumarin-labelled peptide substrate)", "conditions": "@ 5 μM; read-out: percentage inhibition MMP1", "protocol": "as §1, §2, §3, §4, §5, §6, §7, §8\n(§9) Compounds of the invention were tested for inhibitory activity against collagenase (MMP-1) in an assay using a coumarin-labelled peptide substrate, (7-methoxycoumarin-4-yl)acetyl-Pro-Leu-Gly-Leu-(3-[2,4-dinitrophenyl]-L-2,3diaminopropionyl)-Ala-Arg-NH2 (Mca PLGLDpaAR) (Knight et al, 1992, above). The protocol for this assay was as described for the MMP-9 assay above."}, "[3]": {"molecular_target": "MMP-14 (Homo sapiens, UniProt P50281)", "experiment": "MMP-14 enzyme inhibition assay (coumarin-labelled peptide substrate)", "conditions": "@ 5 μM; read-out: percentage inhibition MMP14", "protocol": "as §1, §2, §3, §4, §5, §6, §7, §8\nas §9, with “MMP-14” for “collagenase (MMP-1)”, “PLGLD paAR)” for “PLGLDpaAR)”"}, "[4]": {"molecular_target": "metalloelastase (MMP-12) (Homo sapiens, UniProt P39900)", "sequence (P39900 106-470)": "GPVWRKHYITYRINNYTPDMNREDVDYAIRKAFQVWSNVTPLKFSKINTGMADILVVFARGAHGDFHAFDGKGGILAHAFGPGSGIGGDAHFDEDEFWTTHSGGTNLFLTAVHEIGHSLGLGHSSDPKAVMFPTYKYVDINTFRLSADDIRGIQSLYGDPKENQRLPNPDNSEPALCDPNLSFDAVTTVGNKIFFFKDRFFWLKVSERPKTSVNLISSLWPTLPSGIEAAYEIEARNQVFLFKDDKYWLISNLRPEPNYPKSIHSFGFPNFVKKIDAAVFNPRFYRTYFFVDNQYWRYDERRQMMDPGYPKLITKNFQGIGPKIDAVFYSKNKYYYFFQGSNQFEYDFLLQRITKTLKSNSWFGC", "experiment": "MMP-12 enzyme inhibition assay (coumarin-labelled peptide substrate)", "conditions": "read-out: IC50 MMP12", "protocol": "as §1, §2, §3, §4, §5, §6, §7, §8\nCompounds of the invention were tested for inhibitory activity against metalloelastase (MMP-12) in an assay using a coumarin-labelled peptide substrate, (7-methoxycoumarin-4-yl)acetyl-Pro-Leu-Gly-Leu-(3-[2,4-dinitrophenyl]-L-2,3-diaminopropionyl)-Ala-Arg-NH2 (McaPLGLDpaAR) (Knight et al, 1992, above). The protocol for this assay was as described for the MMP-9 assay above."}, "[5]": {"molecular_target": "T2, gelatinase A (MMP-2) (Homo sapiens, UniProt P08253)", "T2 sequence (P08253 110-660)": "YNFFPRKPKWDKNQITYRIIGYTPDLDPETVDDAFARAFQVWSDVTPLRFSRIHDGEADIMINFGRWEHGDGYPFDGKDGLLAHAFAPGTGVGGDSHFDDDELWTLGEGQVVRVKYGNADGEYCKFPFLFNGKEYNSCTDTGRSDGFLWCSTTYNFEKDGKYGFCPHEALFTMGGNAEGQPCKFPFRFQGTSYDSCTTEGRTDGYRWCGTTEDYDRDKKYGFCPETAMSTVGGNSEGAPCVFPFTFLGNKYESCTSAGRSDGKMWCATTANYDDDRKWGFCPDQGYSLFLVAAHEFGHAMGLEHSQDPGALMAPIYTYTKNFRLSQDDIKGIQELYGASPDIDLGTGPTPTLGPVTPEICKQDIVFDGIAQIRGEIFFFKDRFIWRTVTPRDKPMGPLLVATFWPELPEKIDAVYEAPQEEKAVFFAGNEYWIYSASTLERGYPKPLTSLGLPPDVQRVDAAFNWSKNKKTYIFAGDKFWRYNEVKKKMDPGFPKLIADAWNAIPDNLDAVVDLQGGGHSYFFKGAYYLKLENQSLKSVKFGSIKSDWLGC", "experiment": "MMP-2 enzyme inhibition assay (coumarin-labelled peptide substrate)", "conditions": "read-out: IC50 MMP2", "protocol": "Compounds of the invention were tested to assess their activities as inhibitors of MMP-1, MMP-2, MMP-9, MMP-14, MMP-12 and TACE. MMP-9 Assay Protocol […]\nas §3\nSubstrate: 0.4 mM McaPLGLDpaAR (from Bachem) (0.437 mg/ml) stock solution in 100% DMSO (stored at −20° C.). Dilute to 8 μM in assay butter. […]\nas §6, §7, §8\nas §9, with “gelatinase A (MMP-2)” for “collagenase (MMP-1)”"}, "[6]": {"molecular_target": "MMP13 (Homo sapiens, UniProt P45452)", "experiment": "MMP13 inhibition (Table 1)", "conditions": "@ 5 μM; read-out: percentage inhibition MMP13"}},
  "data": [
    {"smiles": "CC(C)(C(CS(=O)(=O)N1CCc2ccccc2C1)N(O)C=O)N1CCOCC1", "note": "(stereo not drawn) [Example 8, N-{1-[(3,4-dihydroisoquinolin-2(1H)-ylsulfonyl)methyl]-2-methyl-2-morpholin-4-ylpropyl}-N-hydroxyformamide]", "values": [
      {"measurement": "IC50", "setting": "[1]", "result": "> 5000", "unit": "nM"},
      {"measurement": "inhibition at 5 µM", "setting": "[2]", "result": 5, "unit": "%"},
      {"measurement": "inhibition at 5 µM", "setting": "[3]", "result": 8, "unit": "%"},
      {"measurement": "IC50", "setting": "[4]", "result": 627, "unit": "nM"},
      {"measurement": "IC50", "setting": "[5]", "result": "> 5000", "unit": "nM"},
      {"measurement": "inhibition at 5 µM", "setting": "[6]", "result": 41, "unit": "%"}
    ]}
  ]
}
